Reference: patent US7785587B2, “Therapeutic methods for muscular or neuromuscular disorders” (Wyeth, priority 2003, dated 2010)

Columns and labels:
Type in all cases: in vivo, mouse
[1] = system: C57BL/10ScSn-mdx/j mice; experiment: Total body weight of mdx mice treated 4 weeks with prednisone with or without JA-16 (Example 2); details: JA-16 60 mg/kg per week IP, prednisone 2 mg/kg SC 3 times a week
Method: (§1) Male C57BL/10ScSn-mdx/j and C57BL/10 (Jackson Laboratory, Bar Harbor, Me.). Mouse monoclonal anti-GDF-8 antibody JA-16, prednisone (P-9901, Sigma), or vehicle (peanut oil) was injected starting at age 5-7 weeks for 4 weeks. Mice were intraperitoneally (IP) injected with JA-16 at a dose of 60 mg/kg per week (double dosing at first week), or subcutaneously (SC) injected with prednisone at 2 mg/kg, 3 times a week. The body weight and grip strength were monitored before, during and after treatment. Results are shown in Table 3 and Table 4, respectively.

[2] = system: C57BL/10ScSn-mdx/j mice; experiment: Grip strength of mdx mice treated 4 weeks with prednisone with or without JA-16 (Example 2); details: JA-16 60 mg/kg per week IP, prednisone 2 mg/kg SC 3 times a week
Method: as §1

[3] = system: C57BL/10ScSn-mdx/j mice; experiment: Gastrocnemius and quadriceps weight in mdx mice treated 4 weeks with prednisone with or without JA-16 (Example 2); details: end of 4-week study
Method: as §1, with “week.” for “week. The body weight and grip strength were monitored before, during and after treatment. Results are shown in Table 3 and Table 4, respectively.”
(§2) At the end of the study, mice were sacrificed and muscle mass was assessed by dissecting and weighing the gastrocnemius and quadriceps. To confirm biological activity of prednisone, sera from a separate cohort of mice were collected and analyzed for IL6 and IL1β (Ani Lyctics, Inc., Gaithersburg, Md.).

[4] = system: IL6; experiment: Serum IL6 in mice treated with prednisone; details: separate cohort of mice treated with prednisone
Method: as §2

[5] = system: IL1β; experiment: Serum IL1β in mice treated with prednisone; details: separate cohort of mice treated with prednisone
Method: as §2

C[C@]12C=CC(=O)C=C1CC[C@@H]1[C@@H]2C(=O)C[C@@]2(C)[C@H]1CC[C@]2(O)C(=O)CO [Prednisone, prednisone]
Total body weight (average ± SEM) ([1]; week 0 of trial): 17.6 ± 1.8 g
Total body weight (average ± SEM) ([1]; week 1 of trial): 20.9 ± 1.8 g
Total body weight (average ± SEM) ([1]; week 2 of trial): 24.2 ± 1.6 g
Total body weight (average ± SEM) ([1]; week 3 of trial): 24.7 ± 1.5 g
Total body weight (average ± SEM) ([1]; week 4 of trial): 25.9 ± 1.6 g
Grip strength (average ± SEM) ([2]; week 0 of trial): 0.144 ± 0.010 lb
Grip strength (average ± SEM) ([2]; week 3 of trial): 0.177 ± 0.006 lb
Grip strength (average ± SEM) ([2]; week 4 of trial): 0.213 ± 0.011 lb
Muscle weight (average ± SEM), Gastroc [3]: 0.287 ± 0.023 g
Muscle weight (average ± SEM), Quad [3]: 0.417 ± 0.029 g
IL6 in sera [4]: reduced
IL1β in sera [5]: reduced
